{"source": "paper PMC12186844", "about": "(ACS Chemical Neuroscience, 2025)", "key": {"SNAP-D2SR I128^3.46A": {"molecular_target": "T1, SNAP-D2SR I128^3.46A (Homo sapiens, UniProt P14416, I128A)", "T1 sequence (P14416 1-414 isoform P14416-2 I128A)": "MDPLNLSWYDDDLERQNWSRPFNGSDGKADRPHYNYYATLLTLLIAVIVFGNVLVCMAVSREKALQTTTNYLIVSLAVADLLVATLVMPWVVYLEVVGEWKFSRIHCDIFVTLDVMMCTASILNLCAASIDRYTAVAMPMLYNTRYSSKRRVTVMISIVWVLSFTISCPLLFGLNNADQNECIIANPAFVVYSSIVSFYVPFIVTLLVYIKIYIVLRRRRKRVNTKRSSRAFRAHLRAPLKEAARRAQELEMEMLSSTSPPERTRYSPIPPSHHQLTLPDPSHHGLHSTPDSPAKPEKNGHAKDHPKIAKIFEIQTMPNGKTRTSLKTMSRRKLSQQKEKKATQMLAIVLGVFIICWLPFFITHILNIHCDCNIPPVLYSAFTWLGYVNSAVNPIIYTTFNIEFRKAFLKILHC", "assay": "cell membrane [3H]spiperone assay", "procedure": "(§1) Flp-In-CHO cells stably expressing the wild-type or mutant DRs were grown to 90% confluence in 175 cm^2 cell culture flasks. The cells were harvested in PBS containing 2 mM EDTA and centrifuged at 300g for 3 min. The resulting pellet was resuspended in ice-cold assay buffer (20 mM HEPES, 100 mM NaCl, 6 mM MgCl2, 1 mM EGTA, and 1 mM EDTA, pH 7.4), and the centrifugation step was repeated. The intact cell pellet was then resuspended in assay buffer and homogenized using a Polytron homogenizer. After centrifugation (1000g, 10 min), the pellet was discarded, and the supernatant was recentrifuged at 30,000g for 1 h at 4 °C using a Sorvall Evolution RC ultracentrifuge (Thermo Scientific). The resulting pellet was resuspended in assay buffer and stored in 250 μL aliquots at −80 °C. Membrane protein concentration was determined using a Pierce’s BCA protein assay kit (Thermo Fisher, Melbourne).\n[^3H]­Spiperone binding experiments using cell membranes were conducted in a 200 μL reaction volume in assay buffer (20 mM HEPES, 100 mM NaCl, 6 mM MgCl2, 1 mM EGTA, and 1 mM EDTA, pH 7.4) containing 100 μM GppNHp and 0.1% ascorbic acid in 96-well plates. […] In all cases, nonspecific binding was determined in the presence of 10 μM haloperidol. […] Filter bound radioactivity was detected as a chemiluminescence after the addition of MicroScint-20 (Revvity) in a MicroBeta plate counter (Revvity). […]"}, "D2LR [1]": {"molecular_target": "T2, D2LR (Homo sapiens, UniProt P14416)", "T2 sequence (P14416 whole entry)": "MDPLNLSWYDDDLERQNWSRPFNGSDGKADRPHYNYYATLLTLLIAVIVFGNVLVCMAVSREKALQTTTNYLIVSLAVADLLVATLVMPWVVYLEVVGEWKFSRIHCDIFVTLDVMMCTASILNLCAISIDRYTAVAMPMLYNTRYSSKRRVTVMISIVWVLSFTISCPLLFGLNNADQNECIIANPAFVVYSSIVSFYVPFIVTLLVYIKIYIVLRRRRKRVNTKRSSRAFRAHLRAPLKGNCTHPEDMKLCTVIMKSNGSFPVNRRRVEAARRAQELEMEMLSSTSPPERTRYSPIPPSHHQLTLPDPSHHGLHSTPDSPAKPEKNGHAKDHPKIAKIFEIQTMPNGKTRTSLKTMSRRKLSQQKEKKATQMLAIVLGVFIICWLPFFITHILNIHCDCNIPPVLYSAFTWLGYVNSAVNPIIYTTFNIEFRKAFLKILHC", "assay": "ERK1/2 phosphorylation assay", "format": "cell-based", "conditions": "pERK1/2", "method": "Flp-In-CHO cells stably expressing the D2LR were seeded into 96-well plates at a density of 50,000 cells/well. After 5 h, cells were washed with phosphate-buffered saline (PBS) and incubated in serum-free DMEM overnight before assaying. […] Stimulation of the cells was terminated by removing the medium followed by the addition of 100 μL of SureFire lysis buffer (PerkinElmer) to each well. The plate was shaken for 5 min at RT before 5 μL of the lysates was transferred to a white 384-well ProxiPlate (PerkinElmer). Then, 8 μL of a 240:1440:7:7 mixture of Surefire activation buffer:Surefire reaction buffer:AlphaScreen acceptor beads:AlphaScreen donor beads was added to the samples and incubated in the dark at 37 °C for 1.5 h. Plates were read using a Fusion plate reader."}, "SNAP-D2SR V91^2.61A": {"molecular_target": "SNAP-D2SR V91^2.61A (Homo sapiens, UniProt P14416, V91A)", "sequence (P14416 1-414 isoform P14416-2 V91A)": "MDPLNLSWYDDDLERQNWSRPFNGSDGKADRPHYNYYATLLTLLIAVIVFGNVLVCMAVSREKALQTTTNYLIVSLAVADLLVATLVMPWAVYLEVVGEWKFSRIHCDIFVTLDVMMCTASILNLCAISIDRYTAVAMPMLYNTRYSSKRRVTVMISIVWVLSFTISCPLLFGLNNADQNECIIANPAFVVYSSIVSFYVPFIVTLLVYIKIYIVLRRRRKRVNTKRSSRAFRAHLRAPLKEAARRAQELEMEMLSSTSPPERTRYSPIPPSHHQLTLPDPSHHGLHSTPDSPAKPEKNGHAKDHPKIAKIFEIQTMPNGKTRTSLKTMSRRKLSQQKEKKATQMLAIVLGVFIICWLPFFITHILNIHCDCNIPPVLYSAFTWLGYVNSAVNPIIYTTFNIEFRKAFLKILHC", "assay": "functional cAMP assay, BRET biosensor", "format": "cell-based", "procedure": "Flp-In-CHO cells stably coexpressing the CAMYEL biosensor and DRs were plated into white 96-well CulturPlates (Revvity) and grown overnight. The cells were equilibrated in Hank’s balanced salt solution (HBSS) at 37 °C (or 25 °C when indicated) before starting the experiment. The cells were costimulated with the agonists and 10 μM forskolin for the indicated time frames when the BRET readings were captured. Coelenterazine (Nanolight Technology, AZ) was added at a final concentration of 5 μM at least 3 min prior to measurement. […] Net BRET was determined by subtraction of the vehicle control coadded with 10 μM forskolin. For phenoxybenzamine alkylation experiments, the cells were treated with 0.1, 0.3, or 1 μM phenoxybenzamine (Sigma-Aldrich) diluted in HBSS and equilibrated at 37 °C for 30 min prior to the commencement of the assay.\n(§2) Dose–response curves were fitted using the following three-parameter equation: response=bottom+top−bottom/1+10^(logEC50−log[A]) 5 where top and bottom represent the maximal and minimal asymptote of the dose response curve, [A] is the molar concentration of the agonist, and EC50 is the molar concentration of the agonist required to give a response half-way between bottom and top."}, "SNAP-D2SR C118^3.36A": {"molecular_target": "T3, SNAP-D2SR C118^3.36A (Homo sapiens, UniProt P14416, C118A)", "T3 sequence (P14416 1-414 isoform P14416-2 C118A)": "T1 sequence (P14416 1-414 isoform P14416-2 I128A) with C118A, A128I", "assay": "functional cAMP assay, BRET biosensor", "format": "cell-based", "procedure": "(§3) Flp-In-CHO cells stably coexpressing the CAMYEL biosensor and DRs were plated into white 96-well CulturPlates (Revvity) and grown overnight. The cells were equilibrated in Hank’s balanced salt solution (HBSS) at 37 °C (or 25 °C when indicated) before starting the experiment. The cells were costimulated with the agonists and 10 μM forskolin for the indicated time frames when the BRET readings were captured. Coelenterazine (Nanolight Technology, AZ) was added at a final concentration of 5 μM at least 3 min prior to measurement. […] Net BRET was determined by subtraction of the vehicle control coadded with 10 μM forskolin.\nas §2"}, "D2LR [2]": {"molecular_target": "T2, D2LR", "assay": "inhibition of forskolin-stimulated cAMP production, BRET biosensor;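 further: Flp-In-CHO cells stably expressing CAMYEL cAMP BRET sensor, agonist plus 10 µM forskolin, net BRET after forskolin-vehicle subtraction, parameters from complete operational model of allosterism and agonism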", "format": "cell-based", "procedure": "as §3, §2"}, "SNAP-D2SR F50^1.48A": {"molecular_target": "SNAP-D2SR F50^1.48A (Homo sapiens, UniProt P14416, F50A)", "sequence (P14416 1-414 isoform P14416-2 F50A)": "as the sequence (P14416 1-414 isoform P14416-2 V91A) above, with F50A, A91V counted along it", "assay": "cell membrane [3H]spiperone assay", "procedure": "as §1\n[^3H]­Spiperone binding experiments using cell membranes were conducted in a 200 μL reaction volume in assay buffer (20 mM HEPES, 100 mM NaCl, 6 mM MgCl2, 1 mM EGTA, and 1 mM EDTA, pH 7.4) containing 100 μM GppNHp and 0.1% ascorbic acid in 96-well plates. […] In all cases, nonspecific binding was determined in the presence of 10 μM haloperidol. To obtain affinity estimates of unlabeled agonists, competition binding experiments were performed at equilibrium. […] After this incubation period, bound and free radioligands were separated by fast-flow filtration through UniFilter-96 GF/B plates using a MicroBeta FilterMate harvester (Revvity) followed by three washes with ice-cold 0.9% NaCl. Filter bound radioactivity was detected as a chemiluminescence after the addition of MicroScint-20 (Revvity) in a MicroBeta plate counter (Revvity).\nIC50 values obtained from the inhibition curves were converted to Ki values using the Cheng and Prusoff equation."}, "SNAP-D2SR I73^2.43A": {"molecular_target": "SNAP-D2SR I73^2.43A (Homo sapiens, UniProt P14416, I73A)", "sequence (P14416 1-414 isoform P14416-2 I73A)": "as the sequence (P14416 1-414 isoform P14416-2 V91A) above, with I73A, A91V counted along it", "assay": "functional cAMP assay, BRET biosensor", "format": "cell-based", "set-up": "expressed in transfected cells", "procedure": "as §3, §2"}, "SNAP-D2SR D80^2.50A": {"molecular_target": "SNAP-D2SR D80^2.50A (Homo sapiens, UniProt P14416, D80A)", "sequence (P14416 1-414 isoform P14416-2 D80A)": "as the sequence (P14416 1-414 isoform P14416-2 V91A) above, with D80A, A91V counted along it", "assay": "functional cAMP assay, BRET biosensor", "format": "cell-based", "procedure": "as §3, §2"}, "[3]": {"conditions": "read-out: D2 PAM2 KB (converted)"}, "[4]": {"conditions": "with S-(3)-PPP, listed as D2 PAM"}}, "note": "Positions count from the first letter of the chain named.", "data": [{"smiles": "COc1cc(CO)c(F)cc1C(=O)n1ccc2c(F)cccc21", "note": "[D2 PAM2, [5-fluoro-4-(hydroxymethyl)-2-methoxyphenyl]-(4-fluoro-1H-indol-1-yl)methanone]", "values": [{"measurement": "fold shift + 10 μM PAM", "setting": "SNAP-D2SR I128^3.46A; shift of DA IC50", "result": 1.1, "unit": "fold"}, {"measurement": "ΔpIC50 + 10 μM PAM", "setting": "SNAP-D2SR I128^3.46A; shift of DA pIC50", "result": "0.06 ± 0.13"}, {"measurement": "pKB", "setting": "D2LR [1]", "result": "5.36 ± 0.13"}, {"measurement": "LogτB", "setting": "D2LR [1]; intrinsic efficacy", "result": "0.18 ± 0.03"}, {"measurement": "Logαβ", "setting": "D2LR [1]; with dopamine", "result": "1.37 ± 0.12"}, {"measurement": "Kb", "setting": "SNAP-D2SR V91^2.61A", "result": 2.6, "unit": "µM"}, {"measurement": "Logτ", "setting": "SNAP-D2SR V91^2.61A", "result": "-0.23 ± 0.08"}, {"measurement": "pKB", "setting": "SNAP-D2SR V91^2.61A", "result": "5.59 ± 0.21"}, {"measurement": "τ", "setting": "SNAP-D2SR V91^2.61A", "result": 0.59}, {"measurement": "Logαβ", "setting": "SNAP-D2SR V91^2.61A; with DA", "result": "0.93 ± 0.18"}, {"measurement": "αβ", "setting": "SNAP-D2SR V91^2.61A; with DA", "result": 8.5}, {"measurement": "D2 PAM2 log τ", "setting": "SNAP-D2SR C118^3.36A", "result": "–0.24 ± 0.05"}, {"measurement": "D2 PAM2 pKB", "setting": "SNAP-D2SR C118^3.36A", "result": "4.82 ± 0.15"}, {"measurement": "D2 PAM2 τ", "setting": "SNAP-D2SR C118^3.36A", "result": 0.57}, {"measurement": "Kb", "setting": "SNAP-D2SR C118^3.36A; [3]", "result": 15, "unit": "µM"}, {"measurement": "D2 PAM2 log αβ", "setting": "SNAP-D2SR C118^3.36A; with DA", "result": "1.30 ± 0.13"}, {"measurement": "D2 PAM2 αβ", "setting": "SNAP-D2SR C118^3.36A; with DA", "result": 20}, {"measurement": "agonism, fold lower than that of aripiprazole", "setting": "D2LR [2]; D2 PAM2 alone, high D2R expression levels", "result": "approximately 2 fold"}, {"measurement": "pKB", "setting": "D2LR [2]; cAMP", "result": "5.37 ± 0.04"}, {"measurement": "LogτB", "setting": "D2LR [2]; cAMP, intrinsic efficacy", "result": "-0.96 ± 0.04"}, {"measurement": "Logαβ", "setting": "D2LR [2]; cAMP, with dopamine", "result": "1.41 ± 0.04"}, {"measurement": "Kb", "setting": "D2LR [2]; operational model of allostery, with DA", "result": 5.5, "unit": "µM"}, {"measurement": "Logαβ", "setting": "D2LR [2]; with S-(3)-PPP", "result": "1.46 ± 0.16"}, {"measurement": "Logβ", "setting": "D2LR [2]; with S-(3)-PPP", "result": 1.06}, {"measurement": "β", "setting": "D2LR [2]; with S-(3)-PPP", "result": 11.5}, {"measurement": "αβ", "setting": "D2LR [2]; [4]", "result": 28}, {"measurement": "β", "setting": "D2LR [2]; [4]", "result": 11}, {"measurement": "Logαβ", "setting": "D2LR [2]; with apomorphine", "result": "1.21 ± 0.13"}, {"measurement": "Logβ", "setting": "D2LR [2]; with apomorphine", "result": 0.16}, {"measurement": "αβ", "setting": "D2LR [2]; with apomorphine", "result": 16}, {"measurement": "β", "setting": "D2LR [2]; with apomorphine", "result": 1.4}, {"measurement": "Logαβ", "setting": "D2LR [2]; with aripiprazole", "result": "1.61 ± 0.14"}, {"measurement": "Logβ", "setting": "D2LR [2]; with aripiprazole", "result": 1.18}, {"measurement": "αβ", "setting": "D2LR [2]; with aripiprazole", "result": 41}, {"measurement": "β", "setting": "D2LR [2]; with aripiprazole", "result": 15}, {"measurement": "Logαβ", "setting": "D2LR [2]; with bromocriptine", "result": "0.76 ± 0.13"}, {"measurement": "Logβ", "setting": "D2LR [2]; with bromocriptine", "result": 0.49}, {"measurement": "αβ", "setting": "D2LR [2]; with bromocriptine", "result": 5.8}, {"measurement": "β", "setting": "D2LR [2]; with bromocriptine", "result": 3.1}, {"measurement": "Logαβ", "setting": "D2LR [2]; with dopamine", "result": "1.35 ± 0.10"}, {"measurement": "Logβ", "setting": "D2LR [2]; with dopamine", "result": 0.02}, {"measurement": "αβ", "setting": "D2LR [2]; with dopamine", "result": 22}, {"measurement": "β", "setting": "D2LR [2]; with dopamine", "result": 1}, {"measurement": "β", "setting": "D2LR [2]; with dopamine, listed as D2 PAM", "result": 1.0}, {"measurement": "Logαβ", "setting": "D2LR [2]; with lisuride", "result": "0.66 ± 0.06"}, {"measurement": "Logβ", "setting": "D2LR [2]; with lisuride", "result": 0.11}, {"measurement": "αβ", "setting": "D2LR [2]; with lisuride", "result": 4.6}, {"measurement": "β", "setting": "D2LR [2]; with lisuride", "result": 1.3}, {"measurement": "Logαβ", "setting": "D2LR [2]; with pergolide", "result": "1.50 ± 0.15"}, {"measurement": "Logβ", "setting": "D2LR [2]; with pergolide", "result": 0.26}, {"measurement": "αβ", "setting": "D2LR [2]; with pergolide", "result": 32}, {"measurement": "β", "setting": "D2LR [2]; with pergolide", "result": 1.8}, {"measurement": "Logαβ", "setting": "D2LR [2]; with pramipexole", "result": "1.37 ± 0.12"}, {"measurement": "Logβ", "setting": "D2LR [2]; with pramipexole", "result": 0.16}, {"measurement": "αβ", "setting": "D2LR [2]; with pramipexole", "result": 23}, {"measurement": "β", "setting": "D2LR [2]; with pramipexole", "result": 1.4}, {"measurement": "Logαβ", "setting": "D2LR [2]; with ropirinole", "result": "1.67 ± 0.12"}, {"measurement": "Logβ", "setting": "D2LR [2]; with ropirinole", "result": 0.53}, {"measurement": "αβ", "setting": "D2LR [2]; with ropirinole", "result": 47}, {"measurement": "β", "setting": "D2LR [2]; with ropirinole", "result": 3.4}, {"measurement": "Logαβ", "setting": "D2LR [2]; with rotigotine", "result": "1.17 ± 0.09"}, {"measurement": "Logβ", "setting": "D2LR [2]; with rotigotine", "result": -0.20}, {"measurement": "αβ", "setting": "D2LR [2]; with rotigotine", "result": 15}, {"measurement": "β", "setting": "D2LR [2]; with rotigotine", "result": 0.6}, {"measurement": "pKB", "setting": "SNAP-D2SR F50^1.48A; [3H]spiperone competition binding interaction experiment", "result": "5.57 ± 0.25"}, {"measurement": "fold decrease in cooperativity with DA vs WT", "setting": "SNAP-D2SR F50^1.48A; binding", "result": 5, "unit": "fold"}, {"measurement": "Kb", "setting": "SNAP-D2SR F50^1.48A; binding interaction experiment", "result": 3, "unit": "µM"}, {"measurement": "log α", "setting": "SNAP-D2SR F50^1.48A; cooperativity with DA, binding", "result": "0.33 ± 0.03"}, {"measurement": "α", "setting": "SNAP-D2SR F50^1.48A; cooperativity with DA, binding", "result": 2.1}, {"measurement": "fold shift + 10 μM PAM", "setting": "SNAP-D2SR F50^1.48A; shift of DA IC50", "result": 1.7, "unit": "fold"}, {"measurement": "ΔpIC50 + 10 μM PAM", "setting": "SNAP-D2SR F50^1.48A; shift of DA pIC50", "result": "0.22 ± 0.12"}, {"measurement": "D2 PAM2 log τ", "setting": "SNAP-D2SR I73^2.43A", "result": "–1.11 ± 0.16"}, {"measurement": "D2 PAM2 pKB", "setting": "SNAP-D2SR I73^2.43A", "result": "5.24 ± 0.16"}, {"measurement": "D2 PAM2 τ", "setting": "SNAP-D2SR I73^2.43A", "result": 0.08}, {"measurement": "fold decrease in cooperativity with DA", "setting": "SNAP-D2SR I73^2.43A; cAMP", "result": 2.8, "unit": "fold"}, {"measurement": "Kb", "setting": "SNAP-D2SR I73^2.43A; [3]", "result": 6, "unit": "µM"}, {"measurement": "D2 PAM2 log αβ", "setting": "SNAP-D2SR I73^2.43A; with DA", "result": "0.79 ± 0.07"}, {"measurement": "D2 PAM2 αβ", "setting": "SNAP-D2SR I73^2.43A; with DA", "result": 6.1}, {"measurement": "D2 PAM2 log τ", "setting": "SNAP-D2SR D80^2.50A", "result": "–0.78 ± 0.25"}, {"measurement": "D2 PAM2 pKB", "setting": "SNAP-D2SR D80^2.50A", "result": "4.82 ± 0.18"}, {"measurement": "D2 PAM2 τ", "setting": "SNAP-D2SR D80^2.50A", "result": 0.17}, {"measurement": "D2 PAM2 log αβ", "setting": "SNAP-D2SR D80^2.50A; with DA", "result": "0.96 ± 0.25"}, {"measurement": "D2 PAM2 αβ", "setting": "SNAP-D2SR D80^2.50A; with DA", "result": 9.0}]}]}
